Laboratory results from ChEMBL document CHEMBL3596159, “Beyond substrate analogues: new inhibitor chemotypes for glycosyltransferases” (Medchemcomm, 2014).
pIC50, pKi: −log10 of the molar value. In brackets after ≈: the same amount, converted by molar mass.

Key:
Staphylococcus aureus = assay: Antimicrobial activity against methicillin-resistant Staphylococcus aureus; format: functional
[1] = Inhibition of methicillin-resistant Staphylococcus aureus MurG
[2] = Inhibition of human beta-1,4-GalT
[3] = Inhibition of short OGT (unknown origin); design: species or system Homo sapiens
[4] = target: UDP-N-acetylglucosamine--peptide N-acetylglucosaminyltransferase 110 kDa subunit (Homo sapiens, UniProt O15294); assay: Inhibition of nucleocytoplasmic OGT (unknown origin)
[5] = target: Histo-blood group ABO system transferase (Homo sapiens, UniProt P16442); assay: Inhibition of GTB (unknown origin)
[6] = Inhibition of GTA (unknown origin); design: species or system Homo sapiens
[7] = Inhibition of AAGlyB (unknown origin); design: species or system Homo sapiens
[8] = Inhibition of alpha-(1,3)-GalT (unknown origin); design: species or system Homo sapiens
[9] = target: T1, CMP-N-acetylneuraminate-beta-galactosamide-alpha-2,3-sialyltransferase 1 (Homo sapiens, UniProt Q11201); assay: Inhibition of ST3Gal 1 (unknown origin)
T1 sequence (Q11201 whole entry): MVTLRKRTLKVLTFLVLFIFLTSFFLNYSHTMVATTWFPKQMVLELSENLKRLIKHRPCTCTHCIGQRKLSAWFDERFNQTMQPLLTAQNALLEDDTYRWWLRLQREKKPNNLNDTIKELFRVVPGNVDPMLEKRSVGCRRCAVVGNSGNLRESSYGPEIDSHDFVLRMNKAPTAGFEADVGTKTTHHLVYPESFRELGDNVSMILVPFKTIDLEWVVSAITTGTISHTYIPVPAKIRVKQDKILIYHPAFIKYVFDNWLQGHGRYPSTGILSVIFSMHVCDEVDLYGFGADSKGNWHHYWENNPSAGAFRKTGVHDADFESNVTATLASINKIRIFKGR

[10] = target: T2, Beta-galactoside alpha-2,6-sialyltransferase 1 (Homo sapiens, UniProt P15907); assay: Inhibition of ST6Gal 1 (unknown origin)
T2 sequence (P15907 whole entry): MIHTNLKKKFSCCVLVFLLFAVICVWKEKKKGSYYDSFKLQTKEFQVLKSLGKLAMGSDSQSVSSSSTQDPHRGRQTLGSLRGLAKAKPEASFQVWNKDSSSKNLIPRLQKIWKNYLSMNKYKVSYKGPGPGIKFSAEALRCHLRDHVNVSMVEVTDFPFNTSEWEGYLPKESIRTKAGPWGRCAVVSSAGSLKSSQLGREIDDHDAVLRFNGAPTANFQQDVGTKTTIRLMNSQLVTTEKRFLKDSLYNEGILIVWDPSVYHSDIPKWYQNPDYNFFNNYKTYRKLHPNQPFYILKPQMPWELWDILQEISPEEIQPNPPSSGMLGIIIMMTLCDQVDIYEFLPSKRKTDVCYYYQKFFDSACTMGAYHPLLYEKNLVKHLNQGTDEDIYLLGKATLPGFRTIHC

[11] = target: T1, CMP-N-acetylneuraminate-beta-galactosamide-alpha-2,3-sialyltransferase 1; assay: Inhibition of ST3Gal 1 (unknown origin) expressed in High Five cells; design: species or system BTI-TN-5B1-4
[12] = target: T2, Beta-galactoside alpha-2,6-sialyltransferase 1; assay: Inhibition of human ST6Gal1
[13] = target: Beta-galactoside alpha-2,6-sialyltransferase 1 (Rattus norvegicus, UniProt P13721); assay: Inhibition of rat ST6Gal1
[14] = target: CMP-N-acetylneuraminate-beta-1,4-galactoside alpha-2,3-sialyltransferase (Rattus norvegicus, UniProt Q02734); assay: Inhibition of rat ST3Gal3
[15] = target: UDP-N-acetylglucosamine--N-acetylmuramyl-(pentapeptide) pyrophosphoryl-undecaprenol N-acetylglucosamine transferase (Escherichia coli (strain K12), UniProt P17443); assay: Inhibition of Escherichia coli MurG
[16] = target: T3, UDP-N-acetylglucosamine--N-acetylmuramyl-(pentapeptide) pyrophosphoryl-undecaprenol N-acetylglucosamine transferase (Escherichia coli (strain K12)) (UniProt P17443); assay: Inhibition of Escherichia coli MurG at 2.5 microg/ml
T3 sequence (whole entry): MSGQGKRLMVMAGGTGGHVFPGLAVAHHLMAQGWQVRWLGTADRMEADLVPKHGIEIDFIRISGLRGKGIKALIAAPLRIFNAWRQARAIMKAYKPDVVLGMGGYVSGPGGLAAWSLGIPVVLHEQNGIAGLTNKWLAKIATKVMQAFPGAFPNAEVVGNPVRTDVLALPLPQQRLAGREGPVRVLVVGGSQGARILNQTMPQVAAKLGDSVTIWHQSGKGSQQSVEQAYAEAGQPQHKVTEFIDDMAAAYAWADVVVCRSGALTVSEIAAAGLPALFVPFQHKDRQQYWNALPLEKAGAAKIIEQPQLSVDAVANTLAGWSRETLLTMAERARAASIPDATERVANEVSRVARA

[17] = target: T4, Phospho-N-acetylmuramoyl-pentapeptide-transferase/UDP-N-acetylglucosamine--N-acetylmuramyl-(pentapeptide) pyrophosphoryl-undecaprenol N-acetylglucosamine transf (Escherichia coli K-12, UniProt P0A6W3+P17443); assay: Inhibition of Escherichia coli MraY/MurG; format: protein assay
T4 sequence (P0A6W3 whole entry): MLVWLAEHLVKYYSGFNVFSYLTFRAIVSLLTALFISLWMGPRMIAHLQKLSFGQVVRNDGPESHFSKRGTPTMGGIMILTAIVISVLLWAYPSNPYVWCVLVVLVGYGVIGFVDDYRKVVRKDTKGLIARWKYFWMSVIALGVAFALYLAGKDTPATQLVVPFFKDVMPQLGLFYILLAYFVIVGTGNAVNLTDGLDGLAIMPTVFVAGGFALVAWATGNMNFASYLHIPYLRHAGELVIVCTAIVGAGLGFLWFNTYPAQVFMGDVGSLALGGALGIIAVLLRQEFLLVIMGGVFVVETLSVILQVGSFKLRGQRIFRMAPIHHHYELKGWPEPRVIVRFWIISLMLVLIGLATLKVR
T4 sequence (P17443 whole entry): T3 sequence (whole entry)

[18] = Inhibition of bovine beta-1,4-GalT using alpha-Fucp-(1-2)-beta-Galp-O-(CH2)7-CH3 as acceptor and UDP-Gal as substrate by radiochemical assay; design: species or system Bos taurus
[19] = Inhibition of Candida albicans chitin synthase
[20] = target: Alpha-(1,3)-fucosyltransferase 4 (Homo sapiens, UniProt P22083); assay: Inhibition of FucT-4 (unknown origin)
[21] = Inhibition of sialyltransferase (unknown origin); design: species or system Homo sapiens
[22] = target: T5, 4-galactosyl-N-acetylglucosaminide 3-alpha-L-fucosyltransferase FUT5 (Homo sapiens, UniProt Q11128); assay: Uncompetitive inhibition of FucT-5 (unknown origin) using GDP-fucose as donor substrate
T5 sequence (Q11128 whole entry): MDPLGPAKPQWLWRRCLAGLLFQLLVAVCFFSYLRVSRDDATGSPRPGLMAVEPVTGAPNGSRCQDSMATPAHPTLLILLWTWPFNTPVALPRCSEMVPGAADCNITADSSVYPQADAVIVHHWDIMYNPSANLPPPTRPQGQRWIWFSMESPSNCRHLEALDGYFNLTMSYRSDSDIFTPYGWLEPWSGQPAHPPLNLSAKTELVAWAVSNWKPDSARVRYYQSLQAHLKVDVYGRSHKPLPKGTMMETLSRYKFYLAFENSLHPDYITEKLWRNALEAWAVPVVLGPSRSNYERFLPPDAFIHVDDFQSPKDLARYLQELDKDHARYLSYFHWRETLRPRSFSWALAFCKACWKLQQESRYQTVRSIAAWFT

[23] = target: T5, 4-galactosyl-N-acetylglucosaminide 3-alpha-L-fucosyltransferase FUT5; assay: Non-competitive inhibition of FucT-5 (unknown origin) using LacNAc as acceptor substrate
[24] = target: T5, 4-galactosyl-N-acetylglucosaminide 3-alpha-L-fucosyltransferase FUT5; assay: Inhibition of FucT-5 (unknown origin)
[25] = target: T6, 4-galactosyl-N-acetylglucosaminide 3-alpha-L-fucosyltransferase FUT6 (Homo sapiens, UniProt P51993); assay: Inhibition of FucT-6 (unknown origin)
T6 sequence (P51993 whole entry): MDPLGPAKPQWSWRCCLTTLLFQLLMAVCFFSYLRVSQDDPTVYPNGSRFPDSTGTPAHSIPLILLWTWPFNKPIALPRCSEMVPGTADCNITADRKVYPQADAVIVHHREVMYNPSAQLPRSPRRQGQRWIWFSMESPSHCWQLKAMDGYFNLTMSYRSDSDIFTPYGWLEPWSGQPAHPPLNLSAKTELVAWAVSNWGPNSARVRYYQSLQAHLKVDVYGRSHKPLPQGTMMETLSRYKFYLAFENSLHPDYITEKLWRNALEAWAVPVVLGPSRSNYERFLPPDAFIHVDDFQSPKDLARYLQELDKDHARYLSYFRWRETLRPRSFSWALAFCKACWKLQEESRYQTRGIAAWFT

[26] = target: T7, CMP-N-acetylneuraminate-beta-1,4-galactoside alpha-2,3-sialyltransferase (Homo sapiens, UniProt Q11203); assay: Inhibition of ST3N (unknown origin)
T7 sequence (Q11203 whole entry): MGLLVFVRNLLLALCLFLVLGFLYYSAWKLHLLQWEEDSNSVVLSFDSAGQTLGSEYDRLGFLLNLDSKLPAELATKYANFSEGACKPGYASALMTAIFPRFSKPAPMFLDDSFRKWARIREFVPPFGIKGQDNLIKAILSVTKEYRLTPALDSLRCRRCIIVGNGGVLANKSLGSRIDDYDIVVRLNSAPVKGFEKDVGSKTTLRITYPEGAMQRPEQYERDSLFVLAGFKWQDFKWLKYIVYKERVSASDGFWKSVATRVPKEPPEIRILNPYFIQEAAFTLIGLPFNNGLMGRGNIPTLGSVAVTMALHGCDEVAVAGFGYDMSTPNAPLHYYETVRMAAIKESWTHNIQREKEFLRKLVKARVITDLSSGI

[27] = target: T2, Beta-galactoside alpha-2,6-sialyltransferase 1; assay: Inhibition of ST6N (unknown origin)
[28] = Inhibition of beta-1,4-GalT (unknown origin); design: species or system Homo sapiens

Sequence of UDP-N-acetylglucosamine--peptide N-acetylglucosaminyltransferase 110 kDa subunit (O15294 whole entry): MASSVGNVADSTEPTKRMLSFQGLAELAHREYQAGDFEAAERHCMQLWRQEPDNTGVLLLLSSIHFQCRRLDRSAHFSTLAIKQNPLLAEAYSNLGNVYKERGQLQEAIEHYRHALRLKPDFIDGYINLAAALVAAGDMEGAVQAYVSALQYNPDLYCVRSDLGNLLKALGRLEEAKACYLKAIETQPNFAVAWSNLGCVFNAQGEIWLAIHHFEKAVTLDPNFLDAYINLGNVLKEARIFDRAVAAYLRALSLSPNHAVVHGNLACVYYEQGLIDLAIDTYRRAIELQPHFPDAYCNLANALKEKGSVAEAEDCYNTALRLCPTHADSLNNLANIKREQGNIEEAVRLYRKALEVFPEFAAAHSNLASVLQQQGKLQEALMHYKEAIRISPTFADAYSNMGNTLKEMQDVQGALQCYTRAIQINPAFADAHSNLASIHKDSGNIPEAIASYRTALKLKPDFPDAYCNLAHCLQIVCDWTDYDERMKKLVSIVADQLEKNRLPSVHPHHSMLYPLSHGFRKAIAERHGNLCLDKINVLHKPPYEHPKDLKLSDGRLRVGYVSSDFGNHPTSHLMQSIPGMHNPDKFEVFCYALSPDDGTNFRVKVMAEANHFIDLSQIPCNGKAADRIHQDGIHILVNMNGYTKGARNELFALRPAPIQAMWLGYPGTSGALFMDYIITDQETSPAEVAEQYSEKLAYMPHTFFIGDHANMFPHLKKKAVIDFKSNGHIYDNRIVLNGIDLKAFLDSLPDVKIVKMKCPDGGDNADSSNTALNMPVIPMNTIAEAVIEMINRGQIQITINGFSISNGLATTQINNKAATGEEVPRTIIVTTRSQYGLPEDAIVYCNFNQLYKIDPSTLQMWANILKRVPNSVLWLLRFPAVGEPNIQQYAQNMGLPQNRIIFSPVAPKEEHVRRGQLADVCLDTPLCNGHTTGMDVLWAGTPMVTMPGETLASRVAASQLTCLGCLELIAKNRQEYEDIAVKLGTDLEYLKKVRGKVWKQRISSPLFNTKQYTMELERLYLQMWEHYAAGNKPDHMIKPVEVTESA
Sequence of Beta-galactoside alpha-2,6-sialyltransferase 1 (Rattus norvegicus, UniProt P13721) (P13721 whole entry): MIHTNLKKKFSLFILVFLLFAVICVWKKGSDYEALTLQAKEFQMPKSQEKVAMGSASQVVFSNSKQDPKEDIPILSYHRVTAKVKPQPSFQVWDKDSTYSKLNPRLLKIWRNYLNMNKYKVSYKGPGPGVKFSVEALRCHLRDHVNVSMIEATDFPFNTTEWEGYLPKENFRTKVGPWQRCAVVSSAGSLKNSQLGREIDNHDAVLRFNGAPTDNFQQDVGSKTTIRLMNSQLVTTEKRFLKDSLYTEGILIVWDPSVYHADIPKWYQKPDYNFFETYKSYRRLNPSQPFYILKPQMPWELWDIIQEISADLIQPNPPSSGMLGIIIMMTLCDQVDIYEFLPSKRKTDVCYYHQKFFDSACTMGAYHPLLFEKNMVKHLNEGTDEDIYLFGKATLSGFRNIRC
Sequence of CMP-N-acetylneuraminate-beta-1,4-galactoside alpha-2,3-sialyltransferase (Rattus norvegicus, UniProt Q02734) (Q02734 whole entry): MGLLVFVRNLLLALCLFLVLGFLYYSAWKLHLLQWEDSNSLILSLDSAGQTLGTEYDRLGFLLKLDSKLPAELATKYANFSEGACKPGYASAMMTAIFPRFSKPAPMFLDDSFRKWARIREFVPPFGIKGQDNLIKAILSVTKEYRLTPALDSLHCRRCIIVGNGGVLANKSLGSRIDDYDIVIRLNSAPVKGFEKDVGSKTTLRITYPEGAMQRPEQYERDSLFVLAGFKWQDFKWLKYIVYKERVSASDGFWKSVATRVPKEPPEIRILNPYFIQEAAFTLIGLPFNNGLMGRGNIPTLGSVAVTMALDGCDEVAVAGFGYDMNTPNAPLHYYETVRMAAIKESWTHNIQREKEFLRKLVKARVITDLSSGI
Sequence of Histo-blood group ABO system transferase (P16442 whole entry): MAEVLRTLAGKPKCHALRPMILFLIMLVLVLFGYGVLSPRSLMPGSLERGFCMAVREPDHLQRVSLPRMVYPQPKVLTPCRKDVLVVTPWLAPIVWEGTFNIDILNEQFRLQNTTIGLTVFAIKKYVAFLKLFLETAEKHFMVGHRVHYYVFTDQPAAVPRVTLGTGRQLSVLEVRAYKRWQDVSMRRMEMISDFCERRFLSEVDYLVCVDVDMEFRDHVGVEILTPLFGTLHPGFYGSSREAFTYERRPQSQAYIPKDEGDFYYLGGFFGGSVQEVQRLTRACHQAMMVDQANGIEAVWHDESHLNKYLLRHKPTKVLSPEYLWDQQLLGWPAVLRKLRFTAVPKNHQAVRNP
Sequence of Alpha-(1,3)-fucosyltransferase 4 (P22083 whole entry): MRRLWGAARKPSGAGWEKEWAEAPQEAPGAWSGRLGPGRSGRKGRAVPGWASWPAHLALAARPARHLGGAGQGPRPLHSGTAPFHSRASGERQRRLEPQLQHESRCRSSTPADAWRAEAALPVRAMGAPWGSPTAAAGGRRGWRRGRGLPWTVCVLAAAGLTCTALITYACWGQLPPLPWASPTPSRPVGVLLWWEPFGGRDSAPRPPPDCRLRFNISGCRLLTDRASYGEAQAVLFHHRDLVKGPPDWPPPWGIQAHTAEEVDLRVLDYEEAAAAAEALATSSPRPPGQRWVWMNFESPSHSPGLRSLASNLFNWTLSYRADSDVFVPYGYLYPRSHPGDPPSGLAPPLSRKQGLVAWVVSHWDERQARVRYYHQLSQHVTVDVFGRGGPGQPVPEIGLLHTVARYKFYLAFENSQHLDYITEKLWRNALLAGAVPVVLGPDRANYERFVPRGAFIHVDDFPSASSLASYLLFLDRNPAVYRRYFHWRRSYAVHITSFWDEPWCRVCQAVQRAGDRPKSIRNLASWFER

C[C@]12Cc3cnn(-c4ccncc4)c3C=C1CC[C@@H]1[C@@H]2CC[C@@]2(C)[C@H]1CC[C@]2(O)C(=O)CO
MIC (Staphylococcus aureus): 2 µg/mL (≈ 4.47 µM) | IC50 [1]: 115 µg/mL (≈ 257 µM)

CC(=O)N[C@H]1[C@H](O[C@H]2[C@@H](O)[C@@H](CO)O[C@@H](OCc3ccc4ccccc4c3)[C@@H]2O)O[C@H](CO)C[C@@H]1O
pKi [2]: 3.72

O=C(O)C1CC(=O)N(CC23CC4CC(CC(C4)C2)C3)/C(=N/c2ccc(Cl)cc2)S1 (stereo not drawn)
pIC50 [3]: 4.52 | pIC50 [4]: 4.28

N#Cc1ccc(CSc2nc(-c3cccs3)c3c(c2C(=O)O)CCCC3)cc1
pIC50 [3]: 4.22 | pIC50 [4]: 4.00

c1ccc(-c2nsc(N3CCNCC3)n2)cc1
pKi [5]: 3.10 | pKi [6]: 2.29 | pKi [7]: < 1.82 | pKi [8]: 2.20

C[C@H](CCC(=O)O)[C@H]1CC[C@H]2[C@@H]3CC[C@@H]4C[C@H](OC(=O)[C@H](CCC(=O)O)Nc5ccc([N+](=O)[O-])c6nonc56)CC[C@]4(C)[C@H]3CC[C@]12C
pIC50 [9]: 6.06 | pIC50 [10]: 5.82

H-GNWWWW-OH
pKi [11]: 5.96

O=c1cc(-c2ccc(O)c(O)c2)oc2ccccc12
pIC50 [12]: 5.15 | pIC50 [13]: 5.29 | pIC50 [14]: 5.85

CC1CCN(CN2C(=O)/C(=C\c3ccc(C(C)(C)C)cc3)SC2=S)CC1
pKi [15]: 5.89 | inhibition [16]: 88%

CN[C@H](CC(C)C)C(=O)N[C@H]1C(=O)N[C@@H](CC(N)=O)C(=O)N[C@H]2C(=O)N[C@H]3C(=O)N[C@H](C(=O)N[C@H](C(=O)O)c4cc(O)cc(O)c4-c4cc3ccc4O)[C@H](O)c3ccc(c(Cl)c3)Oc3cc2cc(c3O[C@@H]2O[C@H](CO)[C@@H](O)[C@H](O)[C@H]2O[C@H]2C[C@](C)(N)[C@H](O)[C@H](C)O2)Oc2ccc(cc2Cl)[C@H]1O [VANCOMYCIN]
pIC50 [15]: 5.00 | IC50 [17]: 9 µM

O=Cc1ccc(-c2cn([C@@H]3O[C@H](COP(=O)(O)OP(=O)(O)O[C@H]4O[C@H](CO)[C@H](O)[C@H](O)[C@H]4O)[C@@H](O)[C@H]3O)c(=O)[nH]c2=O)s1
pKi [18]: 4.41

C[C@@H]([C@H](N)C(=O)N[C@H](C(=O)O)[C@H]1O[C@@H](n2ccc(=O)[nH]c2=O)[C@H](O)[C@@H]1O)[C@H](O)c1ccc(O)cn1 [NIKKOMYCIN]
pKi [19]: 6.80

O=C(O)c1cc(O)c(O)c(O)c1 [GALLIC ACID]
pIC50 [20]: 4.85 | pIC50 [21]: 4.72

C[C@@H]1CC[C@H]2C(C)(C)[C@H](O)CC[C@]2(C)[C@@]12Cc1c(O)cc(C=O)c(C=O)c1O2
pIC50 [9]: 5.17 | pKi [22]: 4.97 | pKi [23]: 5.01 | pIC50 [24]: 4.95 | pIC50 [25]: 4.68 | pIC50 [26]: 5.00 | pIC50 [27]: 6.21

O=C(NC[C@H]1O[C@@H](n2ccc(=O)[nH]c2=O)[C@H](O)[C@@H]1O)c1cccc(CO[C@@H]2O[C@H](CO)[C@H](O)[C@H](O)[C@H]2O)n1
pIC50 [28]: 3.82
